The source of these data is patent US8188080B2 (Sanford-Burnham Medical Research Institute, priority 2007, dated 2012).

The structures appear in SMILES notation. pIC50: −log10 of the molar value. Like-named read-outs stand apart in the source and are kept apart here.

One test addresses T1, HePTP (Homo sapiens, UniProt P35236).
T1 sequence (P35236 1-360): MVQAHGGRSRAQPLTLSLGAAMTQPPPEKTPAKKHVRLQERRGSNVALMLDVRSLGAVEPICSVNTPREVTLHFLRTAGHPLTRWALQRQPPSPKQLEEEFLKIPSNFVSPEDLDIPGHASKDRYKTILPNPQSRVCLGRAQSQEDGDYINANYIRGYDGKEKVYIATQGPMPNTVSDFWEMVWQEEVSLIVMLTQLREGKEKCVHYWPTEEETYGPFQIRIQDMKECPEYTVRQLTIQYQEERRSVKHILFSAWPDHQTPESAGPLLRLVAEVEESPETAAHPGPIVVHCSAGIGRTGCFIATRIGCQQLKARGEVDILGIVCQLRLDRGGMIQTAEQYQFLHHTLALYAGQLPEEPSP
Description: PTP-catalyzed hydrolysis of DiFMUP, IC50 determination (HePTP). It counts as biochemical. The protocol:
(§1) The PTP-catalyzed hydrolysis of 6,8-difluoro-4-methylumbelliferyl phosphate (DiFMUP) in the presence of the test compound is assayed at 30° C. in a 60 μL 96 well format reaction system in 0.15 M Bis-Tris, pH 6.0 assay buffer having an ionic strength of 150 mM (adjusted with NaCl) and containing 1 mM dithiotreitol and 5% DMSO. At various concentrations of the compound, the initial rate at fixed DiFMUP concentration (equal to the corresponding Km value for each PTP) was determined using a FLx800 micro plate reader (Bio-Tek Instruments, Inc.), an excitation wave length of 360 nm and measuring the emission of the fluorescent reaction product 6,8-difluoro-7-hydroxy-4-methylcoumarin (DiFMU) at 460 nm. The nonenzymatic hydrolysis of the substrate was corrected by measuring the control without addition of enzyme. The IC50 value was determined by plotting the relative activity versus inhibitor concentrations and fitting to Equation 1 using the software GraphPad Prism™ (GraphPad Software, Inc.).
(§2) [formula] In this case, Vi, is the reaction velocity when the inhibitor concentration is [I], V0 is the reaction velocity with no inhibitor and IC50=Ki+Ki[S]/Km.

The next test has as its target T2, Cdc25A (Homo sapiens, UniProt P30304).
T2 sequence (P30304 1-524): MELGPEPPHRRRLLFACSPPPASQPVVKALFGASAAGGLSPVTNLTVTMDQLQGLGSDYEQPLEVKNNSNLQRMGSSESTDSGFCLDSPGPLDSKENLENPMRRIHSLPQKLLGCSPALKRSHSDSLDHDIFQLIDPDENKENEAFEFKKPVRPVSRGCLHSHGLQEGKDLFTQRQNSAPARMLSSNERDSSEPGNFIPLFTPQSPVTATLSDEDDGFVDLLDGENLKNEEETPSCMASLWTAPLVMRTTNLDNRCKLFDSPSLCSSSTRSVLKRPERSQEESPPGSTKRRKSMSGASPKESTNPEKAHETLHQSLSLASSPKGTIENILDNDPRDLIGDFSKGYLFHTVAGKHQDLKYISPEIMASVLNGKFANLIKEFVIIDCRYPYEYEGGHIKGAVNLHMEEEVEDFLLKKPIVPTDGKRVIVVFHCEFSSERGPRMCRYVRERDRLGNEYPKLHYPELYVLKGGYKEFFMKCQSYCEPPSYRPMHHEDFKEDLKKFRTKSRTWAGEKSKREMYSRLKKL
Kind of test: PTP-catalyzed hydrolysis of DiFMUP, IC50 determination (Cdc25A). It counts as biochemical. The protocol:
as §1, §2

[1] abbreviates: Table II, DiFMUP at Km, pH 6.0, 30° C.

With `O=C1/C(=C/c2cn(-c3ccccc3)nc2-c2ccc(OCc3ccc(Cl)cc3)cc2)SC(=S)N1CCS(=O)(=O)O` [Compound 10, (Z)-2-[5-({3-[4-(4-chlorobenzyloxy)phenyl]-1-phenyl-1H-pyrazol-4-yl}methylene)-4-oxo-2-thioxothiazolidin-3-yl]ethane sulfonic acid], the results for the pIC50 on HePTP (setting [1]) and against Cdc25A were 6.21 and 5.61, respectively.

On to `O=C1/C(=C/c2cn(-c3ccccc3)nc2-c2ccc(S(=O)(=O)N3CCOCC3)cc2)SC(=S)N1CCS(=O)(=O)O` [Compound 14], for which the negative-log IC50 (pIC50) (usually the IC50 on a negative log10 scale, so that one unit is a factor of ten) against HePTP was 5.94; at Cdc25A, 5.47.

With `O=C1/C(=C/c2cn(-c3ccccc3)nc2-c2ccc(OCc3ccccc3)cc2)SC(=S)N1CCS(=O)(=O)O` [Compound 9], the pIC50 was 5.82 on HePTP and 5.46 at Cdc25A (setting [1]).
